# Results from ChEMBL document CHEMBL3734705, “Synthesis and in vitro cytotoxicity of novel C-12 substituted-14-deoxy-andrographolide derivatives as potent anti-cancer agents” (2015).
# How the values were obtained:
# Format in all cases: functional
# [1] = tested on: SN12C; test: Cytotoxicity against human SN12C cells after 48 hrs by SRB assay
# [2] = tested on: A549; test: Cytotoxicity against human A549 cells after 48 hrs by SRB assay; conditions: A549, 48 h
# [3] = Cytotoxicity against human SNB75 cells after 48 hrs by SRB assay; conditions: SNB-75, 48 h; for CC50: read-out: LC50 (the source's name)
# [4] = tested on: U-251; test: Cytotoxicity against human U251 cells after 48 hrs by SRB assay; conditions: U-251, 48 h
# [5] = tested on: M14; test: Cytotoxicity against human M14 cells after 48 hrs by SRB assay; conditions: M14, 48 h
# [6] = Cytotoxicity against human SF295 cells after 48 hrs by SRB assay; conditions: SF-295, 48 h
# [7] = tested on: SR; test: Cytotoxicity against human SR cells after 48 hrs by SRB assay; conditions: for CC50: read-out: LC50 (the source's name)
# [8] = Cytotoxicity against human SKOV3 cells after 48 hrs by SRB assay; conditions: SK-OV-3, 48 h; for CC50: read-out: LC50 (the source's name)
# [9] = tested on: T47D; test: Cytotoxicity against human T47D cells after 48 hrs by SRB assay
# [10] = tested on: MDA-MB-468; test: Cytotoxicity against human MDA-MB-468 cells after 48 hrs by SRB assay; conditions: MDA-MB-468, 48 h
# [11] = tested on: MDA-MB-231; test: Cytotoxicity against human MDA-MB-231 cells after 48 hrs by SRB assay; conditions: MDA-MB-231, 48 h
# [12] = Cytotoxicity against human OVCAR3 cells after 48 hrs by SRB assay; conditions: OVCAR-3, 48 h
# [13] = tested on: NCI-H460; test: Cytotoxicity against human NCI-H460 cells after 48 hrs by SRB assay; conditions: NCI-H460, 48 h; for CC50: read-out: LC50 (the source's name)
# [14] = Cytotoxicity against human MOLT4 cells after 48 hrs by SRB assay; conditions: MOLT-4, 48 h
# [15] = Cytotoxicity against human RXF393 cells after 48 hrs by SRB assay; conditions: RXF 393, 48 h
# [16] = Cytotoxicity against human DU145 cells after 48 hrs by SRB assay; conditions: DU-145, 48 h
# [17] = Cytotoxicity against human PC3 cells after 48 hrs by SRB assay; conditions: PC-3, 48 h
# [18] = Cytotoxicity against human Hs578T cells after 48 hrs by SRB assay; conditions: Hs-578T
# [19] = tested on: MCF7; test: Cytotoxicity against human MCF7 cells after 48 hrs by SRB assay; conditions: MCF7, 48 h
# [20] = Cytotoxicity against human OVCAR8 cells after 48 hrs by SRB assay; conditions: OVCAR-8, 48 h
# [21] = Cytotoxicity against human OVCAR5 cells after 48 hrs by SRB assay; conditions: OVCAR-5, 48 h
# [22] = tested on: NCI-H322M; test: Cytotoxicity against human NCI-H322M cells after 48 hrs by SRB assay
# [23] = tested on: NCI-H226; test: Cytotoxicity against human NCI-H226 cells after 48 hrs by SRB assay; conditions: NCI-H226, 48 h
# [24] = tested on: ACHN; test: Cytotoxicity against human ACHN cells after 48 hrs by SRB assay
# [25] = Cytotoxicity against human RPMI8226 cells after 48 hrs by SRB assay; conditions: RPMI-8226, 48 h
# [26] = Cytotoxicity against human TK10 cells after 48 hrs by SRB assay; conditions: TK-10, 48 h
# [27] = Cytotoxicity against human HOP92 cells after 48 hrs by SRB assay; conditions: HOP-92, 48 h
# [28] = tested on: SK-MEL-2; test: Cytotoxicity against human SK-MEL-2 cells assessed as growth level at 10 uM after 48 hrs by SRB assay
# [29] = tested on: SK-MEL-5; test: Cytotoxicity against human SK-MEL-5 cells after 48 hrs by SRB assay; conditions: SK-MEL-5, 48 h
# [30] = tested on: MDA-MB-435; test: Cytotoxicity against human MDA-MB-435 cells after 48 hrs by SRB assay; conditions: MDA-MB-435, 48 h
# [31] = tested on: EKVX; test: Cytotoxicity against human EKVX cells after 48 hrs by SRB assay
# [32] = Cytotoxicity against human SNB19 cells after 48 hrs by SRB assay; conditions: SNB-19, 48 h
# [33] = Cytotoxicity against human LOXIMVI cells after 48 hrs by SRB assay; conditions: LOX IMVI
# [34] = Cytotoxicity against human OVCAR5 cells assessed as growth inhibition at 10 uM after 48 hrs by SRB assay; conditions: OVCAR-5, 48 h, read-out: GI
compound,measurement,setting,value
C=C1CC[C@@H]2[C@](C)(COC(C)=O)[C@H](OC(C)=O)CC[C@@]2(C)[C@@H]1CC(Nc1ccc(S(=O)(=O)NC(C)=O)cc1)C1=CCOC1=O (mixture of isomers),GI50,[1],1.78 µM
same,LC50 (concentration killing 50% of cells),[1],39.2 µM
same,TGI,[1],5.4 µM
same,GI50,[2],8.41 µM
same,LC50,[2],40 µM
same,TGI,[2],18.3 µM
same,GI50,[3],3.08 µM
same,TGI,[3],12.7 µM
same,CC50,[3],30.9 µM
same,GI50,[4],3.49 µM
same,LC50 (concentration giving 50% net cell kill),[4],30.8 µM
same,TGI,[4],12 µM
same,GI50,[5],2.86 µM
same,LC50,[5],45.8 µM
same,TGI,[5],11.9 µM
same,GI50,[6],11.5 µM
same,LC50,[6],42.2 µM
same,TGI,[6],22 µM
same,GI50,[7],0.99 µM
same,TGI,[7],18.1 µM
same,CC50,[7],> 75 µM
same,GI50,[8],9.31 µM
same,TGI,[8],18.7 µM
same,CC50,[8],37.4 µM
same,GI50,[9],2.46 µM
same,LC50 (concentration killing 50% of cells),[9],> 75 µM
same,TGI,[9],12 µM
same,GI50,[10],1.53 µM
same,LC50,[10],6.39 µM
same,TGI,[10],3.13 µM
same,GI50,[11],3.32 µM
same,LC50,[11],35.1 µM
same,TGI,[11],11.6 µM
same,GI50,[12],1.49 µM
same,LC50 (concentration killing 50% of cells),[12],6.13 µM
same,TGI,[12],3.02 µM
same,GI50,[13],6.72 µM
same,TGI,[13],17.9 µM
same,CC50,[13],44.7 µM
same,GI50,[14],2.2 µM
same,LC50,[14],> 75 µM
same,TGI,[14],6.66 µM
same,GI50,[15],1.96 µM
same,LC50 (concentration causing 50% net cell kill),[15],18.8 µM
same,TGI,[15],4.69 µM
same,GI50,[16],2.8 µM
same,LC50 (concentration killing 50% of cells),[16],27 µM
same,TGI,[16],9.74 µM
same,GI50,[17],6.56 µM
same,LC50,[17],40 µM
same,TGI,[17],16.8 µM
same,GI50,[18],8.45 µM
same,LC50 (concentration killing 50% of cells),[18],> 75 µM
same,TGI,[18],38.8 µM
same,GI50,[19],1.92 µM
same,LC50 (50% lethal concentration),[19],> 75 µM
same,TGI,[19],11.3 µM
same,GI50,[20],2.25 µM
same,LC50,[20],38.6 µM
same,TGI,[20],8.42 µM
same,GI50,[21],4.82 µM
same,LC50 (concentration causing 50% net cell kill),[21],39.5 µM
same,TGI,[21],15.4 µM
same,GI50,[22],10.3 µM
same,LC50,[22],40.1 µM
same,TGI,[22],20.3 µM
same,GI50,[23],1.92 µM
same,LC50,[23],> 75 µM
same,TGI,[23],4.62 µM
same,GI50,[24],7.54 µM
same,LC50,[24],36.3 µM
same,TGI,[24],16.5 µM
same,GI50,[25],1.84 µM
same,LC50,[25],> 75 µM
same,TGI,[25],6.53 µM
same,GI50,[26],8.02 µM
same,LC50,[26],35.6 µM
same,TGI,[26],16.9 µM
same,GI50,[27],6.5 µM
same,LC50,[27],35.5 µM
same,TGI,[27],15.9 µM
same,Activity,[28],-7.41%
same,GI50,[29],3.22 µM
same,LC50 (concentration killing 50% of cells),[29],30.7 µM
same,TGI,[29],11.5 µM
same,GI50,[30],2.79 µM
same,LC50 (50% lethal concentration),[30],30.6 µM
same,TGI,[30],10.6 µM
same,GI50,[31],10.8 µM
same,LC50,[31],40.3 µM
same,TGI,[31],20.9 µM
same,GI50,[32],8.19 µM
same,LC50 (concentration killing 50% of cells),[32],43.7 µM
same,TGI,[32],18.9 µM
same,GI50,[33],1.25 µM
same,LC50,[33],4.67 µM
same,TGI,[33],2.42 µM
C=C1CC[C@@H]2[C@](C)(COC(C)=O)[C@H](OC(C)=O)CC[C@@]2(C)[C@@H]1CC(NCCCCCCCC)C1=CCOC1=O (mixture of isomers),inhibition of growth at 10 µM,[34],6.77%
C=C1CC[C@@H]2[C@](C)(COC(C)=O)[C@H](OC(C)=O)CC[C@@]2(C)[C@@H]1CC(NCCCC)C1=CCOC1=O (mixture of isomers),inhibition of growth at 10 µM,[34],4.96%
C=C1CC[C@@H]2[C@](C)(COC(C)=O)[C@H](OC(C)=O)CC[C@@]2(C)[C@@H]1CC(Sc1ccccc1)C1=CCOC1=O (mixture of isomers),GI50,[1],2.1 µM
same,LC50 (concentration killing 50% of cells),[1],> 100 µM
same,TGI,[1],7.07 µM
same,GI50,[2],2.73 µM
same,LC50,[2],> 100 µM
same,TGI,[2],7.77 µM
same,GI50,[3],1.3 µM
same,TGI,[3],2.9 µM
same,CC50,[3],6.47 µM
same,GI50,[4],1.56 µM
same,LC50 (concentration giving 50% net cell kill),[4],5.62 µM
same,TGI,[4],2.96 µM
same,GI50,[5],1.47 µM
same,LC50,[5],9.23 µM
same,TGI,[5],3.69 µM
same,GI50,[6],4.12 µM
same,LC50,[6],> 100 µM
same,TGI,[6],27.3 µM
same,GI50,[7],0.55 µM
same,TGI,[7],3.66 µM
same,CC50,[7],> 100 µM
same,GI50,[8],4.44 µM
same,TGI,[8],16.8 µM
same,CC50,[8],> 100 µM
same,GI50,[9],2.01 µM
same,LC50 (concentration killing 50% of cells),[9],> 100 µM
same,TGI,[9],8.32 µM
same,GI50,[10],1.41 µM
same,LC50,[10],7.53 µM
same,TGI,[10],3.26 µM
same,GI50,[11],2.47 µM
same,LC50,[11],> 100 µM
same,TGI,[11],6.29 µM
same,GI50,[12],1.14 µM
same,LC50 (concentration killing 50% of cells),[12],4.92 µM
same,TGI,[12],2.37 µM
same,GI50,[13],2.24 µM
same,TGI,[13],6.03 µM
same,CC50,[13],> 100 µM
same,GI50,[14],1.48 µM
same,LC50,[14],> 100 µM
same,TGI,[14],6.15 µM
same,GI50,[15],1.62 µM
same,LC50 (concentration causing 50% net cell kill),[15],6.01 µM
same,TGI,[15],3.12 µM
same,GI50,[16],1.41 µM
same,LC50 (concentration killing 50% of cells),[16],5.33 µM
same,TGI,[16],2.74 µM
same,GI50,[17],1.84 µM
same,LC50,[17],> 100 µM
same,TGI,[17],10.1 µM
same,GI50,[18],4.89 µM
same,LC50 (concentration killing 50% of cells),[18],> 100 µM
same,TGI,[18],63.3 µM
same,GI50,[19],0.53 µM
same,LC50 (50% lethal concentration),[19],7.27 µM
same,TGI,[19],2.35 µM
same,GI50,[20],1.46 µM
same,LC50,[20],70 µM
same,TGI,[20],4.7 µM
same,GI50,[21],2.46 µM
same,LC50 (concentration causing 50% net cell kill),[21],8.89 µM
same,TGI,[21],4.67 µM
same,GI50,[22],2.93 µM
same,LC50,[22],> 100 µM
same,TGI,[22],10.4 µM
same,GI50,[23],2.3 µM
same,LC50,[23],39.4 µM
same,TGI,[23],5.98 µM
same,GI50,[24],1.34 µM
same,LC50,[24],6.01 µM
same,TGI,[24],2.84 µM
same,GI50,[25],0.34 µM
same,LC50,[25],> 100 µM
same,TGI,[25],2.73 µM
same,GI50,[26],2.83 µM
same,LC50,[26],13.4 µM
same,TGI,[26],5.54 µM
same,GI50,[27],2.71 µM
same,LC50,[27],> 100 µM
same,TGI,[27],8.71 µM
same,Activity,[28],-1.66%
same,GI50,[29],1.42 µM
same,LC50 (concentration killing 50% of cells),[29],5.6 µM
same,TGI,[29],2.82 µM
same,GI50,[30],1.41 µM
same,LC50 (50% lethal concentration),[30],9.09 µM
same,TGI,[30],3.58 µM
same,GI50,[31],2.43 µM
same,LC50,[31],> 100 µM
same,TGI,[31],10.4 µM
same,GI50,[32],1.78 µM
same,LC50 (concentration killing 50% of cells),[32],7.97 µM
same,TGI,[32],3.77 µM
same,GI50,[33],0.29 µM
same,LC50,[33],3.97 µM
same,TGI,[33],1.19 µM
